From patent US10780101B2, “Amide derivatives of squalamine for the treatment of infections” (VIRBAC, priority 2016, dated 2020)
≈ marks a conversion by molar mass, not a printed value. Like-named read-outs stand apart in the source and are kept apart here.

Tests used:
[1] = system: S. aureus Human ATCC 25923; experiment: MIC determination, S. aureus human ATCC 25923; type: cell-based; details: Staphylococcus aureus, ATCC25923; Gram-positive; Mueller-Hinton medium, 24 h at 37° C.
Method: (§1) A negative control (2 mL of sterile culture medium)
(§2) A positive control (1940 μL of culture medium+40 μL of DMSO+20 μL of the bacterial suspension) from a thawed biological strain (the biological strains are stored at −80° C. in glycerol).
(§3) The tubes were incubated at 37° C. for 24 hours at 100 rpm.
(§4) The microorganisms were handled under a type L2 laboratory fume cupboard and, before any handling, a UV cycle was programmed and only sterile material was used. […] The chemical compounds to be tested were prepared in a DMSO/methanol mixture (50/50) at a concentration of 5 mg/mL.
(§5) After 24 hours of incubation, a measurement of the optical density was taken using a spectrophotometer at 600 nm, collecting 100 μL of the bacterial suspension diluted in 900 μL of the sterile culture medium. This test required the use of a 96-well plate and the required volume of the microbial suspension to be seeded was calculated for an OD corresponding to a value equal to 0.01 in each well. In this plate, the first line corresponded to the negative control (195 μL of sterile culture medium in each well), the second line corresponded to the positive control (seeded culture medium supplemented with 2% of DMSO), and the third line was loaded twice with bacterial suspension; 8 μL of test product were placed in each well. Thereafter, a 0.5 cascade dilution was performed from this line.
(§6) The first column served as inhibition control. A sterile filter was then placed on the microplate, allowing the passage of gases but not of contaminants. The microplate was incubated at 37° C. under a humid atmosphere for 24 hours.
(§7) NB: The medium used is Mueller-Hinton (MH) medium for bacteria. All the tests were performed in duplicate.
(§8) After incubation, the filter was replaced with a transparent film, and an OD reading was then taken in an iEMS plate spectrophotometer at 620 nm. Calculation of the minimum inhibitory concentration (MIC) was performed.

S. aureus Animal (340) = experiment: MIC determination, S. aureus animal (340); type: cell-based; details: Staphylococcus aureus; Gram-positive; Mueller-Hinton medium, 24 h at 37° C.
Method: as §1, §2, §3, §4, §5, §6, §7, §8

[2] = system: S. intermedius Animal (1051997); experiment: MIC determination, S. intermedius animal (1051997); type: cell-based; details: Staphylococcus intermedius; Gram-positive; Mueller-Hinton medium, 24 h at 37° C.
Method: as §1, §2, §3, §4, §5, §6, §7, §8

[3] = system: E. faecalis Human ATCC 29212; experiment: MIC determination, E. faecalis human ATCC 29212; type: cell-based; details: Enterococcus faecalis, ATCC29212; Gram-positive; Mueller-Hinton medium, 24 h at 37° C.
Method: as §1, §2, §3, §4, §5, §6, §7, §8

E. coli Human ATCC 28922 = experiment: MIC determination, E. coli human ATCC 28922; type: cell-based; details: Escherichia coli, ATCC28922; Gram-negative; Mueller-Hinton medium, 24 h at 37° C.
Method: as §1, §2, §3, §4, §5, §6, §7, §8

E. coli Animal (1956) = experiment: MIC determination, E. coli animal (1956); type: cell-based; details: Escherichia coli; Gram-negative; Mueller-Hinton medium, 24 h at 37° C.
Method: as §1, §2, §3, §4, §5, §6, §7, §8

[4] = system: P. aeruginosa Human ATCC 27853; experiment: MIC determination, P. aeruginosa human ATCC 27853; type: cell-based; details: Pseudomonas aeruginosa, ATCC27853; Gram-negative; Mueller-Hinton medium, 24 h at 37° C.
Method: as §1, §2, §3, §4, §5, §6, §7, §8

[5] = system: P. aeruginosa Animal (1051575); experiment: MIC determination, P. aeruginosa animal (1051575); type: cell-based; details: Pseudomonas aeruginosa; Gram-negative; Mueller-Hinton medium, 24 h at 37° C.
Method: as §1, §2, §3, §4, §5, §6, §7, §8

CHO-K1 cells = experiment: WST1 cytotoxicity test on CHO-K1 cells; type: cell-based, Chinese hamster; details: Cricetulus griseus, read-out: IC50 (μg/mL) CHO
Method: Test WST1 was used to measure the cytotoxic activity of the products. This is a colorimetric test which makes it possible to measure the viability and the degree of cell proliferation. It is based on cleavage of the colorless tetrazolium salts WST-1 (4-[3-(4-iodophenyl)-2-(4-nitrophenyl)-2H-5-tetrazolio]-1,3-benzene disulfonate) with mitochondrial dehydrogenases to the yellow-colored formazan derivative, which may be quantified by spectrophotometry at 420-480 nm.
The WST1 test was performed on Chinese hamster ovary cells. The CHO-K1 cells (ATCC, USA) are kept in culture in McCoy's 5A medium supplemented with 10% fetal calf serum, 2 mM of L-glutamine and a mixture of penicillin-streptomycin (100 U/ml: 10 μg/ml). The culture is incubated at 37° C. under an atmosphere enriched in CO2 (5%), and subcultured every two days.
The cells are transferred into 96-well plates (25000 cells/mL) in whole McCoy's 5A medium, and maintained for 24 hours at 37° C. under a humid atmosphere enriched in CO2 (5%). Increasing concentrations of test products are added to the wells in double tests and 8 growth controls containing the cells in the medium alone are included in each series of tests. After 24 hours at 37° C. (5% CO2), the culture medium is removed, the cells are rinsed in phosphate buffer (PBS) and 50 μL of PBS containing 10% of reagent WST1 are added to each well. After 20 minutes of incubation at 37° C., the results are read by spectrophotometry at 450 nm.
The results are expressed in dose-response relationships, modeled by nonlinear regression analysis using the TableCurve software. The 50% inhibitory concentration (IC50) represents the concentration of product that is capable of reducing the cell viability by 50%.

P. aeruginosa (1051575) [6] = experiment: Potentiation of doxycycline activity (combination MIC); type: cell-based, Pseudomonas aeruginosa; details: in presence of doxycycline 2 μg/mL; 24 hours at 37° C.
P. aeruginosa (1051575) [7] = experiment: Potentiation of erythromycin activity (combination MIC); type: cell-based, Pseudomonas aeruginosa; details: erythromycin 2 μg/mL; concentration of compound required to restore antibiotic activity
Method: (§9) This method requires the use of a 96-well plate: 100 μL of a liquid culture medium are placed in each well and then seeded with the microbial suspension prepared previously. The required volume to be seeded is calculated for an OD of 0.01, which corresponds to about 5×10^6 bacteria in each well. In this plate, the first line corresponds to a negative control (200 μL of sterile culture medium in each well), the second line corresponds to a positive control (100 μL of sterile culture medium+100 μL of the bacterial suspension), and the third line contains 192 μL of culture medium; 8 μL of compound of formula (I) to be tested are placed in each well. Thereafter, a cascade dilution is performed from this line. L of a doxycycline solution (1 mg dissolved in 20 mL) are then added to each well of lines 3 to 8 to obtain a final antibiotic concentration of 2 μg/mL. 92 μL of bacterial suspension are then added to lines 3 to 8. The results are read (the determination of the MIC (2 μg/mL of doxycycline) in the presence of X g/mL of compound of formula (I)) after 24 hours of incubation at 37° C. under a humid atmosphere. After 24 hours of incubation at 37° C., 40 μL of nitro tetrazolium iodide are added to each well to reveal the presence of live bacteria by staining the medium pink.
The procedure is identical to that indicated in Example 5 above. 8 μL of an antibiotic solution under consideration (1 mg dissolved in 20 mL) are added to obtain a final antibiotic concentration of 2 μg/mL instead of 8 μL of a doxycycline solution.
(§10) The results are given in table V. They indicate the concentration of compound of formula (I) required to be able to restore the activity of the antibiotic under consideration.

P. aeruginosa (1051575) [8] = experiment: Potentiation of chloramphenicol activity (combination MIC); type: cell-based, Pseudomonas aeruginosa; details: chloramphenicol 2 μg/mL; concentration of compound required to restore antibiotic activity
Method: as §9, with “L of a doxycycline solution (1 mg dissolved in 20 mL) are then added to each well of lines 3 to 8 to obtain a final antibiotic concentration of 2 μg/mL.” left out
The procedure is identical to that indicated in Example 5 above. […]
as §10

| SMILES | MIC [1] [µg/mL] | MIC (S. aureus Animal (340)) [µg/mL] | MIC [2] [µg/mL] | MIC [3] [µg/mL] | MIC (E. coli Human ATCC 28922) [µg/mL] | MIC (E. coli Animal (1956)) [µg/mL] | MIC [4] [µg/mL] | MIC [5] [µg/mL] | IC50 (CHO-K1 cells; CHO-K1, 24 h) [µg/mL] | MIC - P. aeruginosa (1051575): content of compound of formula (I) to restore the doxycycline activity (at 2 μg/mL) (P. aeruginosa (1051575) [6]) [µg/mL] | MIC P. aeruginosa (1051575) compound + erythromycin (P. aeruginosa (1051575) [7]) [µg/mL] | MIC P. aeruginosa (1051575) compound + chloramphenicol (P. aeruginosa (1051575) [8]) [µg/mL] | IC50 (CHO-K1 cells; Table III, WST1 test, CHO-K1 cells, 24 hours) [µg/mL] |
| --- | --- | --- | --- | --- | --- | --- | --- | --- | --- | --- | --- | --- | --- |
| CC(C)NC(=O)CC[C@@H](C)[C@H]1CCC2C3C(CC[C@@]21C)[C@@]1(C)CC[C@H](NCCN(CCN)CCN)CC1C[C@H]3O (stereo partly drawn) [(45), 3β-(tris(2-aminoethyl)amine)-N-isopropylchenodeoxycholamide] | 7 (≈ 12.5 µM) | 4 (≈ 7.12 µM) | 2 (≈ 3.56 µM) | 14 (≈ 24.9 µM) | 110 (≈ 196 µM) | 14 (≈ 24.9 µM) | 110 (≈ 196 µM) | 28 (≈ 49.8 µM) | 60 (≈ 107 µM) | 7 | 28 | 7 | – |
| CC(C)N(C(=O)CC[C@@H](C)[C@H]1CCC2C3C(CC[C@@]21C)[C@@]1(C)CC[C@H](NCCCNCCCCNCCCN)CC1C[C@H]3O)C(C)C (stereo partly drawn) [(50), 3β-spermino-N,N-diisopropylchenodeoxycholamide] | 4 (≈ 6.06 µM) | 2 (≈ 3.03 µM) | 2 (≈ 3.03 µM) | 4 (≈ 6.06 µM) | > 130 | 17 (≈ 25.8 µM) | 17 (≈ 25.8 µM) | 17 (≈ 25.8 µM) | 25 (≈ 37.9 µM) | 2 | 4 | 2 | – |
| CC(C)NC(=O)CC[C@@H](C)[C@H]1CCC2C3CCC4C[C@@H](NCCCN(CCCN)CCCN)CC[C@]4(C)C3C[C@H](O)[C@@]21C (stereo partly drawn) [(42), 3β-(tris(3-aminopropyl)amine)-N-isopropyldeoxycholamide] | 4 (≈ 6.62 µM) | 4 (≈ 6.62 µM) | 1 (≈ 1.66 µM) | 30 (≈ 49.7 µM) | > 120 | 30 (≈ 49.7 µM) | 30 (≈ 49.7 µM) | 60 (≈ 99.3 µM) | 40 (≈ 66.2 µM) | 1 | 8 | 2 | – |
| CC(C)NC(=O)CC[C@@H](C)[C@H]1CCC2C3C(C[C@H](O)[C@@]21C)[C@@]1(C)CC[C@H](NCCCN(CCCN)CCCN)CC1C[C@H]3O (stereo partly drawn) [(43), 3β-(tris(3-aminopropyl)amine)-N-isopropylcholamide] | 16 (≈ 25.8 µM) | 16 (≈ 25.8 µM) | 8 (≈ 12.9 µM) | 60 (≈ 96.8 µM) | 125 (≈ 202 µM) | 60 (≈ 96.8 µM) | 125 (≈ 202 µM) | 60 (≈ 96.8 µM) | 38 (≈ 61.3 µM) | 1 | 30 | 4 | – |
| CC(C)NC(=O)CC[C@@H](C)[C@H]1CCC2C3C(C[C@H](O)[C@@]21C)[C@@]1(C)CC[C@H](NCCNCCNCCNCCNCCN)CC1C[C@H]3O (stereo partly drawn) [(21), 3β-(pentaethylenehexamine)-N-isopropylcholamide] | 17 (≈ 25.6 µM) | 17 (≈ 25.6 µM) | 8 (≈ 12 µM) | 30 (≈ 45.2 µM) | 130 (≈ 196 µM) | 30 (≈ 45.2 µM) | 130 (≈ 196 µM) | 30 (≈ 45.2 µM) | – | – | 30 | 8 | 60 (≈ 90.4 µM) |
| C[C@H](CCC(=O)NC1CCCCC1)[C@H]1CCC2C3C(CC[C@@]21C)[C@@]1(C)CC[C@H](NCCCNCCCCNCCCN)CC1C[C@H]3O (stereo partly drawn) [(51), 3β-spermino-N-cyclohexylchenodeoxycholamide] | 4 (≈ 6.08 µM) | 2 (≈ 3.04 µM) | 1 (≈ 1.52 µM) | 2 (≈ 3.04 µM) | 105 (≈ 160 µM) | 16 (≈ 24.3 µM) | 16 (≈ 24.3 µM) | 16 (≈ 24.3 µM) | 13 (≈ 19.8 µM) | 2 | 8 | 2 | – |
| CC(C)NC(=O)CC[C@@H](C)[C@H]1CCC2C3CCC4C[C@@H](NCCCN5CCN(CCCN)CC5)CC[C@]4(C)C3C[C@H](O)[C@@]21C (stereo partly drawn) [(3), 3β-(1,4-bis(3-aminopropyl)piperazine)-N-isopropyldeoxycholamide] | 15 (≈ 24.4 µM) | 15 (≈ 24.4 µM) | 4 (≈ 6.49 µM) | 124 (≈ 201 µM) | 124 (≈ 201 µM) | > 124 | 124 (≈ 201 µM) | 62 (≈ 101 µM) | 120 (≈ 195 µM) | 2 | – | – | – |
